Results on two compounds are retold here after patent US11918592B2, “Inhibitors of cyclin dependent kinase 7 (CDK7)” (Syros Pharmaceuticals, Inc., priority 2018, dated 2024).

Experiment [1] concerns the target CDK12 (aa686-1082)/Cyclin K complex (Homo sapiens, UniProt Q9NYV4). Kind of experiment: CDK12 kinase inhibition assay (Caliper/LabChip EZ Reader).
Protocol: (§1) Compounds of the invention were assayed for inhibition of CDK7, CDK9, CDK12, and CDK2 activity at Biortus Biosciences (Jiangyin, Jiangsu Province, P.R. of China) using kinase assays for each CDK developed with a Caliper/LabChip EZ Reader (Perkin Elmer, Waltham, MA).
(§2) Furthermore, the CDK9 inhibition assay used CDK9/Cyclin T1 complex (8 nM) and “5-FAM-CDK9tide” peptide substrate (2 μM, synthesized fluorophore-labeled peptide with the following sequence: 5-FAM-GSRTPMY-NH2 (SEQ ID NO:2) where 5-FAM is defined above and NH2 signifies a C-terminal amide) with 10 mM MgCl2 in the buffer composition listed above. The CDK12 inhibition assay used CDK12 (aa686-1082)/Cyclin K complex (50 nM) and “5-FAM-CDK9tide” (2 μM) as defined above, with 2 mM MgCl2 in the buffer composition above. Additionally, the CDK2 inhibition assay used CDK2/Cyclin E1 complex (0.5 nM) and “5-FAM-CDK7tide” (2 μM) as defined above, with 2 mM MgCl2 in the buffer composition listed above.
(§3) The incubation period at 27° C. for each CDK inhibition assay was chosen such that the fraction of phosphorylated peptide product produced in each assay, relative to the total peptide concentration, was approximately 20% (±5%) for the uninhibited kinase (35 min. for CDK7, 35 min. for CDK2, 3 hr. for CDK12, 15 min. for CDK9).
The next experiment deals with CDK2/Cyclin E1 complex (Homo sapiens, UniProt P24941). Kind of experiment: CDK2 kinase inhibition assay (Caliper/LabChip EZ Reader).
Another experiment concerns COV318 cells. In words: Inhibition of cell proliferation, CyQUANT Direct, COV318. Conditions: Homo sapiens; COV318 ovarian cancer cells, 72-hour; read-out: COV 318 proliferation calculated IC50. The format is cell-based.
Experiment [2] has as its target CDK7/Cyclin H/MAT1 complex (Homo sapiens, UniProt P50613). In words: CDK7 kinase inhibition assay (Caliper/LabChip EZ Reader).
Protocol: as §1, §2, §3
A further experiment deals with COV504 cells. In words: Inhibition of cell proliferation, CyQUANT Direct, COV504. It is filed as cell-based. The note with it: Homo sapiens; COV504 ovarian cancer cells, 72-hour; read-out: COV 504 proliferation calculated IC50.
For the next experiment, the system named is MB453 cells. In words: Inhibition of cell proliferation, CyQUANT Direct, MB453. The format is cell-based, human. The note with it: Homo sapiens; MB453 triple negative breast cancer cells, 72-hour; read-out: MB 453 proliferation calculated IC50.
Another experiment concerns the target CDK9/Cyclin T1 complex (Homo sapiens, UniProt P50750). In words: CDK9 kinase inhibition assay (Caliper/LabChip EZ Reader).
A further experiment deals with HCC70 cells. In words: Inhibition of cell proliferation, CyQUANT Direct, HCC70. The format is cell-based, human. The note with it: Homo sapiens; HCC70 triple negative breast cancer cells, 72-hour; read-out: HCC 70 proliferation calculated IC50.

Bounds are passed on as bounds.

CDK12 (aa686-1082)/Cyclin K complex, sequence (Q9NYV4 686-1082): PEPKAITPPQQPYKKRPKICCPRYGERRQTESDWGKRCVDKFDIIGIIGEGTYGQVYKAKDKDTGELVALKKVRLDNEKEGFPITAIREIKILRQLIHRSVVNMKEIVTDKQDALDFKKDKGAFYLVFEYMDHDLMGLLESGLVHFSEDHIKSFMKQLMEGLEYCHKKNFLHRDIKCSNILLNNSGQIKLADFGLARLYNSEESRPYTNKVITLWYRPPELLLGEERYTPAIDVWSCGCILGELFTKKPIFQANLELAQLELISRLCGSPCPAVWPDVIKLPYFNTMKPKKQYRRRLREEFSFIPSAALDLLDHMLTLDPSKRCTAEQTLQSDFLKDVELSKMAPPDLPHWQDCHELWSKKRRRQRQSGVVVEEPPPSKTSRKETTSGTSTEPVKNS
CDK12 (aa686-1082)/Cyclin K complex, sequence (O75909 whole entry partner, the tested form may be a part): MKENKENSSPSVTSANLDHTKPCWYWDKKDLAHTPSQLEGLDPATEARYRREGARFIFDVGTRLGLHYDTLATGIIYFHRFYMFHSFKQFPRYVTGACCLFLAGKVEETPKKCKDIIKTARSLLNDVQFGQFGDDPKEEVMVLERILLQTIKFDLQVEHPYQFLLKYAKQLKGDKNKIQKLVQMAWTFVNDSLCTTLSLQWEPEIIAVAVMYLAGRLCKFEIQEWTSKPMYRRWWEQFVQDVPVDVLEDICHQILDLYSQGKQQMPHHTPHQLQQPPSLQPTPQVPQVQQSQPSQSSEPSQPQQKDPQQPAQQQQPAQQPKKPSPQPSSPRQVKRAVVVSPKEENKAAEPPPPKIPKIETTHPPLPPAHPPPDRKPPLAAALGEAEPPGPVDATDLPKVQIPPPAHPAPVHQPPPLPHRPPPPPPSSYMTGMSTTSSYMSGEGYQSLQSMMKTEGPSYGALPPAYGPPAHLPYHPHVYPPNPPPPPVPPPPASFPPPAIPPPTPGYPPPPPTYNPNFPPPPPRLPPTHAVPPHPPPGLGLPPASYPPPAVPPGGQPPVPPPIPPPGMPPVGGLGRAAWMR
CDK7/Cyclin H/MAT1 complex, sequence (P50613 whole entry): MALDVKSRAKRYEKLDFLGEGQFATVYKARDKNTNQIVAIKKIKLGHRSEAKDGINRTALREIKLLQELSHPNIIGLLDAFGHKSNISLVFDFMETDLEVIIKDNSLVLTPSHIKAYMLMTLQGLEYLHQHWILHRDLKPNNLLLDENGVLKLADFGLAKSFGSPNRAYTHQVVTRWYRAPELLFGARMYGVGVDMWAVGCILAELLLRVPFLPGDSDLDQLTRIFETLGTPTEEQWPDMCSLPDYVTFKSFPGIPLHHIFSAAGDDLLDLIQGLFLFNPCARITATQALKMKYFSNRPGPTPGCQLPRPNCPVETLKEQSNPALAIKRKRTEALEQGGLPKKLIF
CDK7/Cyclin H/MAT1 complex, sequence (P51946 whole entry partner): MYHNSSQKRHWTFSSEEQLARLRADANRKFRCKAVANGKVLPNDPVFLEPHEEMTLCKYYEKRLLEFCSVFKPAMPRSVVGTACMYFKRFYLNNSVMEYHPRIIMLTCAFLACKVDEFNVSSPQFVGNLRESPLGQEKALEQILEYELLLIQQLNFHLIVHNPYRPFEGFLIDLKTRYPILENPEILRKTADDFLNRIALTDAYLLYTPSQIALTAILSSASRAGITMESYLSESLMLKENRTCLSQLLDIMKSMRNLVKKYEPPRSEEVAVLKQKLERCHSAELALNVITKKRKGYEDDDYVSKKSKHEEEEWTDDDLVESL
CDK7/Cyclin H/MAT1 complex, sequence (P51948 whole entry partner): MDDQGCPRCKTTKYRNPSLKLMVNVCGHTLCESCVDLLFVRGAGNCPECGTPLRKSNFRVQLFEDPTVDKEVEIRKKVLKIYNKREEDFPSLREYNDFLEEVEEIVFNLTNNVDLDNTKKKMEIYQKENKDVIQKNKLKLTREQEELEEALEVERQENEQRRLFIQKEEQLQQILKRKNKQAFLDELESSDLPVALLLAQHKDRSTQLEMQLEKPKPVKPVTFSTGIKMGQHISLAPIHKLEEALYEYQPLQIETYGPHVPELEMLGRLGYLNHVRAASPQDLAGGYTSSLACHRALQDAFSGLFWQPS
CDK9/Cyclin T1 complex, sequence (P50750 whole entry): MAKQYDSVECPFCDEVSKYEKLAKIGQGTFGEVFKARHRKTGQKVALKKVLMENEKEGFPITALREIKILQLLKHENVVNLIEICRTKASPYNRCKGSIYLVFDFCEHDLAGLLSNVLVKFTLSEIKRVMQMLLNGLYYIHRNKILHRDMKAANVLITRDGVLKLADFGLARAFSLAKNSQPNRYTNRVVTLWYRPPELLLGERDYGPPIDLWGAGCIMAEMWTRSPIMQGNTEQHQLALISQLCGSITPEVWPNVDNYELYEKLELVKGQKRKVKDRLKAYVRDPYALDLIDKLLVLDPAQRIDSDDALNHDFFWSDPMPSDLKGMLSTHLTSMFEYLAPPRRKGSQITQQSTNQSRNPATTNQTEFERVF
CDK9/Cyclin T1 complex, sequence (O60563 whole entry partner): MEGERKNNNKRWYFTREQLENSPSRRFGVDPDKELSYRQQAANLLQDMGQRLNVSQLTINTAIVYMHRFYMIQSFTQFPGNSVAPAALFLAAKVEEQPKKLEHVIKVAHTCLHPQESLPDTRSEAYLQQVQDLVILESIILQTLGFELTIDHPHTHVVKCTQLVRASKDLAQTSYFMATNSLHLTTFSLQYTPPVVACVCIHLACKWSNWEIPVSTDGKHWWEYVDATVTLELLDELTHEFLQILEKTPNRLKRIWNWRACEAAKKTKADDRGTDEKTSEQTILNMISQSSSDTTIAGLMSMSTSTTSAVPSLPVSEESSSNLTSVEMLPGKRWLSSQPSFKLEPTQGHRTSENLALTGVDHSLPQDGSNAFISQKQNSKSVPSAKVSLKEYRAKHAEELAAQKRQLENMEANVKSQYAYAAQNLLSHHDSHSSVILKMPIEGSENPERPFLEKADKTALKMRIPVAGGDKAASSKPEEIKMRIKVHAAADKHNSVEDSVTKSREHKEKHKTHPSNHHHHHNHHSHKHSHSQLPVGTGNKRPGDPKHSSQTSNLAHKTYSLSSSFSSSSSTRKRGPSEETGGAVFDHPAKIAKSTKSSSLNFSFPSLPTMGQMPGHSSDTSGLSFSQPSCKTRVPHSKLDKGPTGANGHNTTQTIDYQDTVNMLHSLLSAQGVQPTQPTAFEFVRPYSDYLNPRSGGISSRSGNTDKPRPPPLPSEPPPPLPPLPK
Protocol for CDK9/Cyclin T1 complex: as §1, §2, §3

Regarding `Cc1noc(C)c1-c1ccc2c(-c3nc(N[C@H]4CCC[C@H]4N4CC(F)(F)C4)ncc3C(F)(F)F)c[nH]c2n1` [Compound 167, N-[(1S,2R)-2-(3,3-difluoroazetidin-1-yl)cyclopentyl]-4-[6-(3,5-dimethylisoxazol-4-yl)-1H-pyrrolo[2,3-b]pyridin-3-yl]-5-(trifluoromethyl)pyrimidin-2-amine], the IC50 in experiment [1] was greater than 500 nM; on CDK2/Cyclin E1 complex, greater than 500 nM; with COV318 cells it was greater than 2000 nM; in experiment [2], greater than 500 nM; in the experiment with COV504 cells, greater than 2000 nM; in the experiment with MB453 cells, greater than 2000 nM. The IC50 at CDK9/Cyclin T1 complex was greater than 500 nM; with HCC70 cells it was greater than 2000 nM.

Turning to `N[C@H]1CCC[C@@H]1Nc1ncc(C(F)(F)F)c(-c2c[nH]c3c(Cl)c(O)ccc23)n1` [Compound 168, 3-[2-[[(1S,2S)-2-aminocyclopentyl]amino]-5-(trifluoromethyl)pyrimidin-4-yl]-7-chloro-1H-indol-6-ol], the IC50 is greater than 500 nM in experiment [1]; greater than 500 nM against CDK2/Cyclin E1 complex; 100 to 500 nM in the experiment with COV318 cells; less than 30 nM in experiment [2]; less than 100 nM in the experiment on COV504 cells; less than 100 nM in the experiment with MB453 cells. Further, the figures for the IC50 against CDK9/Cyclin T1 complex and in the experiment with HCC70 cells were greater than 500 nM and 100 to 500 nM, respectively.
